In PMC2964429 (Biochemistry, 2010):

Tests used:
[1] = biological target: HpAgD (agmatine deiminase from Helicobacter pylori); settings: read-out: IC50 HpAgD; previously reported; cited from earlier work
[2] = biological target: PgAgD (agmatine deiminase from P. gingivalis) (Porphyromonas gingivalis, UniProt Q7MXM8); assay: IC50 determination, agmatine deiminase discontinuous ureido; type: biochemical
Cys324 = assay: chemical modification; settings: 37 °C, 50 mM HEPES, free enzyme (kinact/KI)
[3] = biological target: SmAgD (agmatine deiminase from S. mutans) (Streptococcus mutans serotype c, UniProt Q8DW17); assay: IC50 determination, agmatine deiminase discontinuous ureido; type: biochemical
Sequence of SmAgD (agmatine deiminase from S. mutans) (Q8DW17 whole entry): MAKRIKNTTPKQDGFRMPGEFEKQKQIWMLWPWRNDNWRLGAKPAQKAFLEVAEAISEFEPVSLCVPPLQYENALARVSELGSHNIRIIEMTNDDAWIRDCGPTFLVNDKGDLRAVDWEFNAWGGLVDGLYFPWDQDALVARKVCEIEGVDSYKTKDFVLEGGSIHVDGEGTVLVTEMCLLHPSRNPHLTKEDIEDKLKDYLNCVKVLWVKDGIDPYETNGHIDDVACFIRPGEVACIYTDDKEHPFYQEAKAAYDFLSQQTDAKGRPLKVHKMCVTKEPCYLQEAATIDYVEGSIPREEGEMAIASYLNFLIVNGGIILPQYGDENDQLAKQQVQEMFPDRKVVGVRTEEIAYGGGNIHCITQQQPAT

Molecule | IC50 [1] | IC50 [2] | pKa (Cys324; 2-chloroacetamidine 0-60 mM) | pKa (Cys324; iodoacetamide 0-20 mM) | IC50 [3]
N=C(CCl)NCCCCN [ABCA, N-(4-aminobutyl)-2-chloro-ethanimidamide] | 0.87 ± 0.03 µM | 15 ± 3 µM | – | – | –
Agmatine deiminase (HpAgD) (Helicobacter pylori) | – | – | 9.8 ± 0.1 | 9.2 ± 0.3 | –
N=C(CF)NCCCCN [ABFA, N-(4-aminobutyl)-2-fluoro-ethanimidamide] | 6.8 ± 0.26 µM | 91 ± 25 µM | – | – | 0.27 ± 0.1 µM
